How the values were obtained:
Format in all cases: functional, cell-based
HT-29 = assay: Cytotoxicity against human HT-29 cells
A549 = assay: Cytotoxicity against human A549 cells
HCT-116 = assay: Cytotoxicity against human HCT116 cells

Measured: IC50

COC(=O)C[C@H]1CCCN1CCC/C=C1\C=C(C)C(=O)O1
> 5 µg/mL: all assays above

COC(=O)C[C@H]1CCCN1CCC/C=C1/C=C(C)C(=O)O1
> 5 µg/mL: all assays above

CC1=C[C@H]([C@H]2CCCN2CCCC[C@@H]2C[C@@H](C)C(=O)O2)OC1=O
> 5 µg/mL: all assays above

COC(=O)C[C@@H]1CCCN1CCC/C=C1\C=C(C)C(=O)O1
> 5 µg/mL: all assays above
